Experimental data: ChEMBL document CHEMBL4052809, “Development of a highly reliable assay for ubiquitin-specific protease 2 inhibitors” (Bioorg Med Chem Lett, 2017)
pIC50: −log10 of the molar value. Active and inactive are the calls of the source. No cut-off for these calls is given here.

Legend:
[1] = molecular target: T1, Ubiquitin carboxyl-terminal hydrolase 2 (Homo sapiens) (UniProt O75604); test: Inhibition of recombinant human N-terminal His-tagged USP2 catalytic domain (258 to 605 residues) expressed in Escherichia coli BL21(DE3) at 100 uM using human N-terminal GST-tagged UBA52 as substrate pretreated for 10 mins followed by substrate addition after 60 mins by coomassie staining based assay
T1 sequence (whole entry): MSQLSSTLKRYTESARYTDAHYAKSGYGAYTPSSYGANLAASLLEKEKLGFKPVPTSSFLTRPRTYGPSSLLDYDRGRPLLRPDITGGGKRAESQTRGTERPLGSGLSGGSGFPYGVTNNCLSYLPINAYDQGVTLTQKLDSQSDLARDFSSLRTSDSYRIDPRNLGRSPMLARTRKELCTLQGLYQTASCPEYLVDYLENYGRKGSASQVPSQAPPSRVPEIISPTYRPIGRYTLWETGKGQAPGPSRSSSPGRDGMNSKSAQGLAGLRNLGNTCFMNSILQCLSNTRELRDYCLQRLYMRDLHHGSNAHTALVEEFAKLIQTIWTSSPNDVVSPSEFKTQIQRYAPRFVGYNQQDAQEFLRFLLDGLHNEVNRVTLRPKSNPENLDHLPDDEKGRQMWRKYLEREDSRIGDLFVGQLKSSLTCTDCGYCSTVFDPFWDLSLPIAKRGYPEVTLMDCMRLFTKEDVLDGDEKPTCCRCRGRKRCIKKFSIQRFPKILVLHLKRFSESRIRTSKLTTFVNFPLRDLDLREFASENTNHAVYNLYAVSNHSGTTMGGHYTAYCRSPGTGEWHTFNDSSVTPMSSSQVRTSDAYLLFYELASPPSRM

[2] = molecular target: T2, Ubiquitin carboxyl-terminal hydrolase 2 (Homo sapiens, UniProt O75604); test: Inhibition of recombinant human N-terminal His-tagged USP2 catalytic domain (258 to 605 residues) expressed in Escherichia coli BL21(DE3) using human N-terminal GST-tagged UBA52 as substrate pretreated for 10 mins followed by substrate addition after 60 mins by coomassie staining based assay
T2 sequence (O75604 whole entry): T1 sequence (whole entry)

- inhibition [1]: Active
- pIC50 [2]: 4.13 to 4.18
Structure (SMILES): CC(=O)Nc1cccc(CNC(=O)c2sc3ccccc3c2OCc2ccccc2)c1
